# Values joined by “and” are separate entries in the source; they are usually repeats but may differ in a detail not shown here. Identical values can stand only once. Like-named read-outs stand apart in the source and are kept apart here.
# Assays:
# [1] = DMSO and water/DMSO (98:2) stability (UV-Vis); format: physicochemical; details: room temperature
# Description: (§1) UV-Visible spectrums were measured with a UV3600 UV -Vis-NIR spectrophotometer in a range of 500 -200 nm using a quartz cuvette. The measurements were determined at λ values corresponding to the maximum of absorption . Baselines were determined with MeOH :media (1:1) mixture . Sample concentrations were determined using maximum absorption value s. All compounds were tested in […]
# (§2) Preparation of calibration curve
# (§3) From this solution, different volumes were combined with MeOH:media (1:1) mixture to obtain concentrations between 2.0 – 40.0 µg/mL. […]
# (§4) intestinal fluid (SIF, pH 6.8) or phosphate buffered saline solution (PBS, pH 7.4) was added. The vial contents were mixed at 1500 rpm at 37 °C for 24 h and then incubated at 37 °C for 24 h without stirring. Samples were filtered (0.2 μm, Sterile Acrodisc® 13, GelmanScience) before analysis.
# (§5) The filtered solutions were diluted in MeOH:media (1:1) mixture to achieved final concentrations of 0.01 (SGF), 0.02 (SIF) and 0.04 µg/mL (PBS). Verapamil and pr ocaine were used as internal […]
# (§6) DMSO and water/DMSO (98:2) stability […]
# were measured in a range of 500-200 nm using a quartz cuvette and the absorption was determined at 331 nm. Samples with 1.0 mg of 1.9 in 1 mL of DMSO or water/DMSO (98:2) mixture were prepared, and they were kept at room temperature without stir ring. Independent samples were measured every 1 week over 5 weeks. […]
# [2] = Bovine plasma stability (HPLC-MS); format: in vitro ADME; details: 120 min incubation, read-out: Stability t1/2 Bovine plasma
# Description: (§7) Stability assays were performed according to the procedure described in a previous work (Leal et al., [2019]). Samples were taken at different incubation times and analyzed by high-performance liquid chromatography–mass spectrometry (HPLC–MS) using a Waters Alliance e2695 system (Waters Corporation, Milford, MA, USA) fitted with a Phenomenex Kinetex® XB-C18 column (150 × 4.6 mm, 5-μm particle size, Phenomenex Inc., Torrance, CA, USA) coupled to a Waters SQD2 single quadrupole mass spectrometer with an ESI source. A gradient elution was applied using 40% water and 0.1% acetic acid (mobile phase A) and 40% methanol (mobile phase B), with the following program: 0–3 min 40% B; 3–7 min 40–90% B; and 7–20 min 90% B. The flow rate was kept constant at 0.35 ml min^−1. […]
# (§8) Compound 1.9 was selected to perform in vitro physicochemical studies (solubility and stability). The solubility (S) was evaluated at SGF (pH 1.2), SIF (pH 6.8), and PBS solution (pH 7.4), employing the shake-flask method with UV spectroscopy (Bollini et al., [2013]). […] The stability was evaluated by calculating the percentage of remaining drug (HPLC–MS) after contact with different incubation media (SIF, SGF, PBS, mouse, and bovine plasma) for 120 min. […] Neither compound modification nor degradation was detected after the different incubation periods. […]
# [3] = Shake-flask solubility (UV-Vis); format: physicochemical; details: thermodynamic from solid
# Description: Verapamil was used as internal control. More detailed information is available in the Supplementary Material.
# as §1, §2, §3, §4, §5, §6
# were measured in a range of 500-200 nm using a quartz cuvette and the absorption was determined at 331 nm. Samples with 1.0 mg of 1.9 in 1 mL of DMSO or water/DMSO (98:2) mixture were prepared, and they were kept at room temperature without stir ring. Independent samples were measured every 1 week over 5 weeks. For the measurements, solutions were diluted at 1/100 in DMSO and 1/50 in water:DMSO (98:2) mixture. The values in the chart are the mean of three
# [4] = Mouse plasma stability (HPLC-MS); format: in vitro ADME; details: mouse/murine plasma, 120 min incubation; read-out: Stability t1/2 Mouse/murine plasma
# Description: as §7, §8
# MDBK cells = experiment: Cytotoxicity assay (MTS/PMS); details: MDBK cells, 3 days
# Description: (§9) (A) Cytotoxicity. Sub-confluent MDBK cell monolayers grown in 96-well plates were treated with 2-fold serial dilutions of each compound in IM. Mock-treated cells were added as control. Cells were incubated and allowed to proliferate for 3 days at 37°C and 5% CO2. Cell viability was then determined by the MTS/PMS method. (B) Antiviral activity. Sub-confluent MDBK cell monolayers grown in 96-well plates were infected with BVDV NADL (MOI = 0.01) and treated with different concentrations of the compounds. Mock-infected cells and mock-treated infected cells were included as controls in each plate. After 3 days at 37°C and 5% CO2, cell viability was determined by the MTS/PMS method, and the percentage of the viral CPE inhibition was calculated.
# (§10) MDBK cells were seeded in 96-well plates at a density of 1 × 10^4 cells per well in GM. After 24 h, the culture medium was removed, monolayers were washed twice with phosphate-buffered saline (PBS), and serial dilutions of the test compounds were made in E-MEM supplemented with donor horse serum (DHS, Gibco, IM) and added. Cultures were incubated for 3 days at 37°C, and then, cell viability was determined by the MTS/PMS method according to the manufacturer's instructions (Promega). After incubation for 3 h at 37°C and 5% CO2, the absorbance was determined at 490 nm. The 50% cytotoxic concentration (CC50) was defined as the concentration of compound that inhibited the proliferation of exponentially growing cells by 50% and was calculated by interpolation in dose–response curves.
# [5] = Cytotoxicity assay (MTS/PMS); details: bovine, MDBK cells
# Description: as §9, §10
# BVDV type 1 NADL strain = experiment: Anti-BVDV assay (CPE reduction, MTS/PMS); format: cell-based, Bovine viral diarrhea virus; details: for EC50: BVDV NADL in MDBK cells, MOI 0.01, 3 days, reduces viral CPE by 50%, Inactive: <50% of inhibition of CPE at MNCC
# Description: (A) Cytotoxicity. […] Mock-treated cells were added as control. […] (B) Antiviral activity.
# Madin-Darby bovine kidney cells (MDBK NBL-1; ATCC CCL-22) were grown in Eagle's Minimum Essential Medium (E-MEM), supplemented with 10% biotechnological fetal bovine serum (Internegocios, Argentina) (GM) at 37°C and 5% CO2. The BVDV type 1 NADL strain, cytopathic biotype (BVDV-1, ATCC VR 534), was provided by Dr. Laura Weber (INTA Castelar, Argentina).
# Then, serial dilutions of the test compounds in IM were added. […] After incubation for 3 days at 37°C and 5% CO2, the culture medium was removed, cell monolayers were washed twice with PBS, and IM supplemented with MTS/PMS was added to each well. The absorbance of each well was read at 490 nm. The EC50 was defined as the concentration of compound that prevented 50% of the virus-induced CPE and was calculated by interpolation in dose–response curves.
# [6] = Stability in SGF, SIF, PBS (HPLC-MS); format: physicochemical
# Description: Stability assays were performed according to the procedure described in a previous work (Leal et al., [2019]). Samples were taken at different incubation times and analyzed by high-performance liquid chromatography–mass spectrometry (HPLC–MS) using a Waters Alliance e2695 system (Waters Corporation, Milford, MA, USA) fitted with a Phenomenex Kinetex® XB-C18 column (150 × 4.6 mm, 5-μm particle size, Phenomenex Inc., Torrance, CA, USA) coupled to a Waters SQD2 single quadrupole mass spectrometer with an ESI source. A gradient elution was applied using 40% water and 0.1% acetic acid (mobile phase A) and 40% methanol (mobile phase B), with the following program: 0–3 min 40% B; 3–7 min 40–90% B; and 7–20 min 90% B. The flow rate was kept constant at 0.35 ml min^−1. After each sample injection, the gradient was returned to its initial conditions in 16 min. The injection volume was 5 μl. The column temperature was 35°C. The mass spectrometer was operated in positive ion mode with a probe capillary voltage of 2.5 kV. The sampling cone voltage was set to 35.0 V. The source and desolvation gas temperatures were set at 150 and 350°C, respectively. The nitrogen gas desolvation flow rate was 600 L h^−1, and the cone gas flow rate was 10 L h^−1. The mass spectrometer was calibrated across the range of m/z 20–2,023 with a sodium and cesium iodide solution. Data were acquired in scan mode with a scan duration of 0.2 s and in SIR mode with unit resolution. Data acquisition and processing were carried out using MassLynx software, version 4.1. […]
# as §8
smiles,measurement,setting,value
"OCCN1CCN(c2nc(-c3ccccc3)nc3ccccc23)CC1 [Compound 1.9, 2-[4-(2-Phenylquinazolin-4-yl)piperazin-1-yl]ethanol]",time stable in DMSO,[1]; 1.0 mg/mL in DMSO,≥ 5 weeks
same,time stable in water/DMSO (98:2),[1]; 1.0 mg/mL in water/DMSO (98:2),≥ 5 weeks
same,half-life,[2],> 2 h
same,solubility at 24 h,"[3]; phosphate buffered saline (PBS), aqueous buffer, PBS pH 7.4, 37 °C, read-out: Solubility PBS",300 ± 100 µg/mL
same,solubility at 24 h,"[3]; simulated gastric fluid (SGF), simulated gastric fluid pH 1.2, 37 °C, read-out: Solubility SGF",8700 ± 400 µg/mL
same,solubility at 24 h,"[3]; simulated intestinal fluid (SIF), fassgf or other biorelevant, simulated intestinal fluid pH 6.8, 37 °C, read-out: Solubility SIF",400 ± 200 µg/mL
same,half-life,[4],> 2 h
same,MNCC (maximum non-cytotoxic concentration),MDBK cells,12.5 µM and 12.5 ± 2.4 µM
same,CC50 at 3 days,[5],32000 ± 1900 nM
same,EC50,BVDV type 1 NADL strain; read-out: EC50,1800 ± 400 nM
same,EC50,"BVDV type 1 NADL strain; Bovine viral diarrhea virus isolates and strains, MDBK, 72 h",1700 ± 400 nM
same,SI (CC50/EC50),"BVDV type 1 NADL strain; in vitro selectivity index, MDBK cells / BVDV NADL",17.8
same,half-life,"[6]; PBS pH 7.4, 120 min incubation, read-out: Stability t1/2 PBS",> 2 h
same,half-life,"[6]; simulated gastric fluid (SGF), SGF pH 1.2, 120 min incubation, read-out: Stability t1/2 SGF",> 2 h
same,half-life,"[6]; simulated intestinal fluid (SIF), SIF pH 6.8, 120 min incubation, read-out: Stability t1/2 SIF",> 2 h

# Source: paper PMC7793975, “Design and Optimization of Quinazoline Derivatives: New Non-nucleoside Inhibitors of Bovine Viral Diarrhea Virus” (Frontiers in Chemistry, 2020)
